From patent US5605929A, “Methods and compositions for inhibiting 5α-reductase activity” (priority 1995, dated 1997)
Entries after “also recorded” stand apart in the source; their conditions may differ.

Legend:
5α-reductase = 5α-reductase inhibition stated in words; assay type: biochemical
[1] = target: T1, 5α-Reductase of Rat Liver Microsomes (Rattus norvegicus, UniProt P24008); assay: biochemical
T1 sequence (P24008 1-259): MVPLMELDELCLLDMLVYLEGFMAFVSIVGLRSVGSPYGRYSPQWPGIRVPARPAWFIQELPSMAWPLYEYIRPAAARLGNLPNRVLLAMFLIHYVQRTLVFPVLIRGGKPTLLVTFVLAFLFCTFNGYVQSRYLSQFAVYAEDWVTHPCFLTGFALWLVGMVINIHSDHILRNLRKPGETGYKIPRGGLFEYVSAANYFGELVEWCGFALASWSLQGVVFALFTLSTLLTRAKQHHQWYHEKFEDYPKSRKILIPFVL

5α-reductase / prostate = details: cited from earlier work
rat pituitary cultures = details: cited from earlier work
prostate = details: dog, in vivo; cited from earlier work
scalp baldness = details: cited from earlier work; for baldness: topical to scalp
[2] = target: T2, human 5α-reductase isozyme type 2 (Homo sapiens, UniProt P31213); assay: [3H]4-MA binding, human type 2 isozyme expressed in Rat-1A cells
T2 construct: expressed in transfected cells; host or cells: Rat-1A cells infected with pMV7 retrovirus; microsomes of these cells
T2 sequence (P31213 1-254): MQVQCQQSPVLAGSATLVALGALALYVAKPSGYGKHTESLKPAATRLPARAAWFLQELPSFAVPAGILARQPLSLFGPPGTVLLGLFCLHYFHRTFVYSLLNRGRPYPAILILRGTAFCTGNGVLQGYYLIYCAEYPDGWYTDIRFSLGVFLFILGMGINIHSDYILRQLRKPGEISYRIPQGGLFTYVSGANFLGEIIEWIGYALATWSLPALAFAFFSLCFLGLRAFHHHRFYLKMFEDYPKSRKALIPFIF
Source text: (§1) The cDNAs for the human type 1 and 2 5α-reductases were isolated from human prostate λZAP II™ cDNA libraries using the published sequence of the 5α-reductases, PCR™ and standard library screening techniques (Sambrook et al., 1989). The type 1 and 2 cDNAs correspond to nucleotides 31-870 and 28-829, respectively, of the published sequences for these 5α-reductases (Anderson and Russell, 1990; Anderson et al., 1991). The type 1 and 2 cDNAs were subcloned into the retroviral expression vector pMV7 (Kirschmeier et al., 1988) and high titer stocks of virus containing the type 1 and 2 cDNAs were generated using the packaging cells BOSC 23 293 (Kirschmeier et al., 1988). Rat.-1A cells (Pear et al., 1993) were infected with virus (Topp, 1981) and cells containing integrated retrovirus were selected for G418-SO4 resistance, (Brown and Scott, 1987).
(§2) Microsomes were prepared as described previously (Liang and Liao, 1992) from the liver of adult Sprague-Dawley female rats or Rat-1A cells expressing a specific type of human 5α-reductase. […] The data presented was based on the rate of reaction.
(§3) [^3 H]4-MA binding assay were described in detail previously (Liang and Liao, 1992; Liang et al., 1983). […] The reaction was started by the addition of 25 μl of microsomes (25 μg protein). After 30-60 min incubation at 0° C., the [^3 H]4-MA bound to microsomes was collected on a Whatman GF/F glass fiber, washed and radioactivity determined (Liang and Liao, 1992).

[3] = target: human type 1 and 2 5α-reductase isozymes (Homo sapiens, UniProt P18405); details: cited from earlier work
[4] = tested on: human type 1 and 2 5α-reductase isozymes; details: human; cited from earlier work
[5] = tested on: plasma 5α-DHT and prostate; details: BPH patients; cited from earlier work
[6] = target: T3, human 5α-reductase isozyme type 1 (Homo sapiens, UniProt P18405); assay: [3H]4-MA binding, human type 1 isozyme expressed in Rat-1A cells; details: read-out: % Inhibition of [^3 H]4-MA binding
T3 construct: expressed in transfected cells; host or cells: Rat-1A cells infected with pMV7 retrovirus; microsomes of these cells
T3 sequence (P18405 1-259): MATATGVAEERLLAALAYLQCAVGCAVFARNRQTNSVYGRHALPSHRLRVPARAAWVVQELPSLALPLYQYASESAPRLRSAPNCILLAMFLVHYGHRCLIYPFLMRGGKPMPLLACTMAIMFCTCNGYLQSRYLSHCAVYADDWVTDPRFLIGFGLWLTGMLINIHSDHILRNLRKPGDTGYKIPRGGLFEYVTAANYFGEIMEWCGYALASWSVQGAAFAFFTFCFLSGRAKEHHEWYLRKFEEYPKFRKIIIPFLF
Source text: as §1, §2, §3

type 1 5α-reductase [7] = target: type 1 5α-reductase (Homo sapiens, UniProt P18405); details: cited from earlier work
[8] = target: T2, human 5α-reductase isozyme type 2; assay: 4-[14C]testosterone reduction, human type 2 isozyme; assay type: biochemical
Source text: as §1, §2
(§4) The reaction was started by the addition of 25 μl of microsomes (25 μg protein). The mixture was incubated at 37° for 30-60 min and stopped by addition of 0.5 ml of ethyl acetate and mixing for 1 min. The organic solvent extract was removed under vacuum.

[9] = NADPH oxidation in presence of microsomes
[10] = target: T3, human 5α-reductase isozyme type 1; assay: 4-[14C]testosterone reduction, human type 1 isozyme; assay type: biochemical
Source text: as §1, §2, §4

type 1 5α-reductase [11] = assay type: biochemical
Experimental: as §3, §4

Soybean lipoxygenase = Soybean lipoxygenase (Glycine max, UniProt P08170); details: cited from earlier work
[12] = tested on: androgen-dependent organs; assay type: in vivo, rat
Experimental: The control rats were injected with 0.3 ml of 30% ethanol.

[13] = tested on: prostate and preputial organ; assay: Catechins ip 7 days, large rats; assay type: in vivo, rat; details: 15 mg ip/day, 7 days
Experimental: Male Sprague Dawley rats, 172±20 g body weight, were used. Each group had 5 rats. […] The control rats received 0.3 ml of 30% ethanol.

[14] = target: T1, 5α-Reductase of Rat Liver Microsomes; assay: [3H]4-MA binding assay, rat liver microsomes (tea catechins)
How it was run: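 Microsomes from adult female Sprague-Dawley rat liver or Rat-1A cells expressing human 5α-reductase, 25 μg protein per reaction. Incubation 30–60 min at 0 °C; microsome-bound [3H]4-MA collected on glass-fibre filters and counted. Duplicate or triplicate determinations, values based on reaction rate.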

[15] = read-out: % Inhibition of [^3 H]4-MA binding
[16] = read-out: % Inhibition of 5α-reduction

Sequence of Soybean lipoxygenase (P08170 whole entry): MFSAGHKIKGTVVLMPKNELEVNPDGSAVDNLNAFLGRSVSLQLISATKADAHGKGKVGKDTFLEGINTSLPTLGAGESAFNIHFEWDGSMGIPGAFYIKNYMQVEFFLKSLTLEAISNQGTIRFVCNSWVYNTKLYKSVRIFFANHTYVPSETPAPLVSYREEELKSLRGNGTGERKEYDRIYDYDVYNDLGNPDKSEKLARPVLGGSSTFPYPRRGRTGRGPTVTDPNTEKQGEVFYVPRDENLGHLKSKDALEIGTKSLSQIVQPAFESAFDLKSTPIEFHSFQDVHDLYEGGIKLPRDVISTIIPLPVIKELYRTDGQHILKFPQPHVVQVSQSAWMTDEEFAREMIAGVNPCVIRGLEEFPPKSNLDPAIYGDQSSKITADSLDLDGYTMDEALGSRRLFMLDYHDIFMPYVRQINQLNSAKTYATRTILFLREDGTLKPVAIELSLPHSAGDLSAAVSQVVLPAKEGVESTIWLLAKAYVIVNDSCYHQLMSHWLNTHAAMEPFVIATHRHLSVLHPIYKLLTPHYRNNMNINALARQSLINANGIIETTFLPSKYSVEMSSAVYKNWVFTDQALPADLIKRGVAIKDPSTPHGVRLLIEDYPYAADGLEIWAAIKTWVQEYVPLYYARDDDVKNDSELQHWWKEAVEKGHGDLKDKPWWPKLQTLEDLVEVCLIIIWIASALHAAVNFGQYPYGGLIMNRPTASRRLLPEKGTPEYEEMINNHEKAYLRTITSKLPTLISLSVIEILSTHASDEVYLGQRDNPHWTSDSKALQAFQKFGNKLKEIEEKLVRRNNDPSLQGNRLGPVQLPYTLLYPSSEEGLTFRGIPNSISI

## O=C(OCc1cc(O)c(O)c(O)c1)c1cc(O)c(O)c(O)c1
5α-reductase
  5α-reductase inhibition: potent inhibitor of 5α-reductase

## CCN(CC)C(=O)[C@H]1CC[C@H]2[C@@H]3CC[C@H]4N(C)C(=O)CC[C@]4(C)[C@H]3CC[C@]12C [4-MA, 17β-N,N-diethylcarbamoyl-4-methyl-4-aza-5α-androstan-3-one]
[1]
  Ki: 13 nM
5α-reductase / prostate; castrated rats + testosterone
  effect on prostate growth: attenuated the growth of the prostate
5α-reductase / prostate; intact or castrated male rats given testosterone propionate
  effect on prostatic 5α-DHT: decreasing the prostatic concentration of 5α-DHT
Rat pituitary cultures
  testosterone inhibition of LH release: did not affect testosterone inhibition of LH release
prostate
  prostate size: the prostate size decreases
Scalp baldness
  baldness: prevented the baldness; also recorded: effective in preventing male pattern baldness

## CC(C)(C)NC(=O)[C@H]1CC[C@H]2[C@@H]3CC[C@H]4NC(=O)C=C[C@]4(C)[C@H]3CC[C@]12C [Finasteride, 17β-N-t-butylcarbamoyl-4-aza-5α-androst-1-en-3-one, reference compound]
[2]
  inhibition of type 2 isozyme expressed in Rat-1A cells: inhibited the type 2 isozyme
[2]; [15]
  inhibition at 0.001 µM: < 10%
  inhibition at 0.003 µM: < 10%
  inhibition at 0.01 µM: 22%
  inhibition at 0.03 µM: 44%
  inhibition at 0.1 µM: 67%
[3]
  sensitivity of type 1 isozyme: rather insensitive
[4]
  sensitivity of type 2 vs type 1 isozyme to inhibition (times): 30 times
[5]
  plasma 5α-DHT and prostate size: decreases the plasma level of 5α-DHT and the size of the prostate
[6]
  inhibition at 0.001 µM: < 10%
  inhibition at 0.003 µM: < 10%
  inhibition at 0.01 µM: < 10%
  inhibition at 0.03 µM: < 10%
  inhibition at 0.1 µM: < 10%
Scalp baldness; 0.5 mg/day oral, alone or with topical 2% Minoxidil
  serum 5α-DHT and hair: reduced serum 5α-DHT level
Scalp baldness
  baldness: effective in preventing male pattern baldness

## CN1C(=O)CC[C@@H]2c3ccc(Cl)cc3CC[C@H]21 [LY191704]
Type 1 5α-reductase [7]
  type 1 5α-reductase selectivity: selective inhibitor of the type 1 5α-reductase

## O=C(O[C@@H]1Cc2c(O)cc(O)cc2O[C@@H]1c1ccc(O)c(O)c1)c1cc(O)c(O)c(O)c1 [ECG, (-)Epicatechin-3-gallate]
[8]; enzymatic assay, concentrations below 30 μM for ECG/EGCG
  activity on type 2 isozyme: did not inhibit the Type 2 isozyme
[8]; [16]
  inhibition at 1 µM: < 10%
  inhibition at 3 µM: < 10%
  inhibition at 10 µM: < 10%
  inhibition at 30 µM: < 10%
  inhibition at 100 µM: 82%
[9]
  NADPH oxidation: did not induce NADPH oxidation
[10]; enzymatic assay
  IC50: ~10 µM
[10]; [16]
  inhibition at 1 µM: 20%
  inhibition at 3 µM: 27%
  inhibition at 10 µM: 47%
  inhibition at 30 µM: 90%
  inhibition at 100 µM: 99%
[2]; [15]
  inhibition at 1 µM: 17%
  inhibition at 3 µM: 17%
  inhibition at 10 µM: 45%
  inhibition at 30 µM: 76%
  inhibition at 100 µM: 80%
[6]
  inhibition at 1 µM: 34%
  inhibition at 3 µM: 47%
  inhibition at 10 µM: 79%
  inhibition at 30 µM: 87%
  inhibition at 100 µM: 79%
Type 1 5α-reductase [11]
  competition with testosterone or NADPH: did not appear to compete with testosterone or NADPH
Soybean lipoxygenase
  IC50: 18 µM
[12]; 10 and 15 mg per day
  effect on all organs examined: less than 20%
[12]; up to 15 mg per day
  effect on the body weight: No significant effect
[13]
  effect on the body weights: less than 10%
[14]; [15]
  inhibition at 5 µM: 25%
  inhibition at 10 µM: 44%
  inhibition at 20 µM: 74%
  inhibition at 40 µM: 88%
  inhibition at 200 µM: 92%
[14]; type 1 5α-reductase of rat liver microsomes, read-out: IC50
  IC50: 12 µM
